Reference: US12077503B2, “Substituted cyclic amides and their use as herbicides” (FMC CORPORATION, priority 2015, dated 2024)

Experiments:
Assay type in all cases: in vivo
[1] = test system: barnyardgrass (Echinochloa crus-galli); experiment: Test A preemergence; settings: Echinochloa crus-galli, pre-emergence, 240 h
In short: (§1)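 Ratings of 0 (no effect) to 100 (complete control) come from visual comparison with untreated controls roughly 10 d after treatment. Test chemicals, formulated in a non-phytotoxic solvent mixture with surfactant, were applied either as a preemergence directed soil spray on seeded soil or postemergence to one- to two-leaf plants 2 to 10 cm tall.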

[2] = test system: ragweed (common ragweed, Ambrosia elatior); experiment: Test A preemergence; settings: Ambrosia artemisiifolia, pre-emergence, 240 h
In short: as §1

[3] = test system: pigweed (Amaranthus retroflexus); experiment: Test A preemergence; settings: Amaranthus retroflexus, pre-emergence, 240 h
[4] = test system: giant foxtail (Setaria faberii); experiment: Test A preemergence; settings: Setaria faberi, pre-emergence, 240 h
In short: as §1

[5] = test system: ryegrass, Italian (Italian ryegrass, Lolium multiflorum); experiment: Test A preemergence; settings: Lolium multiflorum, pre-emergence, 240 h
In short: as §1

[6] = test system: Kochia (Kochia scoparia); experiment: Test A preemergence; settings: Bassia scoparia, pre-emergence, 240 h
In short: as §1

[7] = test system: Galium (catchweed bedstraw, Galium aparine); experiment: Test A postemergence; settings: Galium, post-emergence, 240 h, read-out: Plant response rating, Galium
In short: as §1

[8] = test system: barnyardgrass (Echinochloa crus-galli); experiment: Test A postemergence; settings: Echinochloa crus-galli, post-emergence, 240 h, read-out: Plant response rating, Barnyardgrass
In short: as §1

[9] = test system: ragweed (common ragweed, Ambrosia elatior); experiment: Test A postemergence; settings: Ambrosia artemisiifolia, post-emergence, 240 h, read-out: Plant response rating, Ragweed
In short: as §1

[10] = test system: wheat (Triticum aestivum); experiment: Test A postemergence; settings: Triticum aestivum, post-emergence, 240 h, read-out: Plant response rating, Wheat
In short: as §1

[11] = test system: pigweed (Amaranthus retroflexus); experiment: Test A postemergence; settings: Amaranthus retroflexus, post-emergence, 240 h, read-out: Plant response rating, Pigweed
In short: as §1

[12] = test system: giant foxtail (Setaria faberii); experiment: Test A postemergence; settings: Setaria faberi, post-emergence, 240 h, read-out: Plant response rating, Foxtail, Giant
In short: as §1

[13] = test system: ryegrass, Italian (Italian ryegrass, Lolium multiflorum); experiment: Test A postemergence; settings: Lolium multiflorum, post-emergence, 240 h, read-out: Plant response rating, Ryegrass, Italian
In short: as §1

[14] = test system: blackgrass (Alopecurus myosuroides); experiment: Test A postemergence; settings: Alopecurus myosuroides, post-emergence, 240 h, read-out: Plant response rating, Blackgrass
In short: as §1

[15] = test system: Kochia (Kochia scoparia); experiment: Test A postemergence; settings: Bassia scoparia, post-emergence, 240 h, read-out: Plant response rating, Kochia
In short: as §1

[16] = test system: corn (Zea mays); experiment: Test A postemergence; settings: Zea mays, post-emergence, 240 h
In short: as §1

[17] = test system: barnyardgrass (Echinochloa crus-galli); experiment: Test B flooded paddy test; settings: Echinochloa crus-galli, 250 g ai/ha, Flood; 0 to 100 scale where 0 is no effect and 100 is complete control; read-out: Barnyardgrass plant response rating
In short: (§2)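 Compound goes directly into floodwater once pots are flooded 3 cm above soil, targeting plants at two leaves; the water depth is then held for the test duration. Plants sit 13–15 d in a greenhouse and are rated visually, 100 denoting complete control.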

[18] = test system: ducksalad (Heteranthera limosa); experiment: Test B flooded paddy test; settings: Heteranthera limosa, 250 g ai/ha, Flood; 0 to 100 scale where 0 is no effect and 100 is complete control; read-out: Ducksalad plant response rating
In short: as §2

[19] = test system: rice (Oryra sativa); experiment: Test B flooded paddy test; settings: Oryza sativa, 250 g ai/ha, Flood; 0 to 100 scale where 0 is no effect and 100 is complete control; read-out: Rice plant response rating
In short: as §2

[20] = test system: sedge, umbrella (small-flower umbrella sedge, Cyperus difformis); experiment: Test B flooded paddy test; settings: Cyperus difformis, 250 g ai/ha, Flood; 0 to 100 scale where 0 is no effect and 100 is complete control; read-out: Sedge, Umbrella plant response rating
In short: as §2

[21] = 125 g ai/ha, Postemergence, visual injury after approximately 10 d, 0 to 100 scale where 0 is no effect and 100 is complete control
[22] = 500 g ai/ha, postemergence, visual injury, 0 to 100 scale (0 no effect, 100 complete control), approx. 10 d

**Q.** `Cc1ccc([C@H]2CN(C)C(=O)[C@@H]2C(=O)Nc2ccccc2S(C)(=O)=O)cc1Cl` [Compound 1018] was tested. Which pest or weed control at 125 g/ha ([1]; 125 g ai/ha, Preemergence, visual injury rating after approximately 10 d, read-out: Barnyardgrass plant response rating (0 to 100 scale, 0 is no effect, 100 is complete control)) did it give?
**A.** 90%

**Q.** What about the pest or weed control at 500 g/ha ([1]; 500 g ai/ha, preemergence, visual injury rating about 10 d after treatment, 0 to 100 scale (0 no effect, 100 complete control), read-out: Barnyardgrass plant response rating) of the same compound?
**A.** 90%

**Q.** And the pest or weed control at 125 g/ha ([2]; 125 g ai/ha, Preemergence, visual injury rating after approximately 10 d, read-out: Ragweed plant response rating (0 to 100 scale, 0 is no effect, 100 is complete control))?
**A.** 0%

**Q.** And the pest or weed control at 500 g/ha ([2]; 500 g ai/ha, preemergence, visual injury rating about 10 d after treatment, 0 to 100 scale (0 no effect, 100 complete control), read-out: Ragweed plant response rating)?
**A.** 40%

**Q.** And the pest or weed control at 125 g/ha ([3]; 125 g ai/ha, Preemergence, visual injury rating after approximately 10 d, read-out: Pigweed plant response rating (0 to 100 scale, 0 is no effect, 100 is complete control))?
**A.** 30%

**Q.** What about the pest or weed control at 500 g/ha ([3]; 500 g ai/ha, preemergence, visual injury rating about 10 d after treatment, 0 to 100 scale (0 no effect, 100 complete control), read-out: Pigweed plant response rating) of the same compound?
**A.** 80%

**Q.** What about the pest or weed control at 125 g/ha ([4]; 125 g ai/ha, Preemergence, visual injury rating after approximately 10 d, read-out: Foxtail, Giant plant response rating (0 to 100 scale, 0 is no effect, 100 is complete control)) of the same compound?
**A.** 90%

**Q.** What about the pest or weed control at 500 g/ha ([4]; 500 g ai/ha, preemergence, visual injury rating about 10 d after treatment, 0 to 100 scale (0 no effect, 100 complete control), read-out: Foxtail, Giant plant response rating) of the same compound?
**A.** 90%

**Q.** And the pest or weed control at 125 g/ha ([5]; 125 g ai/ha, Preemergence, visual injury rating after approximately 10 d, read-out: Ryegrass, Italian plant response rating (0 to 100 scale, 0 is no effect, 100 is complete control))?
**A.** 0%

**Q.** And the pest or weed control at 500 g/ha ([5]; 500 g ai/ha, preemergence, visual injury rating about 10 d after treatment, 0 to 100 scale (0 no effect, 100 complete control), read-out: Ryegrass, Italian plant response rating)?
**A.** 70%

**Q.** What about the pest or weed control at 125 g/ha ([6]; 125 g ai/ha, Preemergence, visual injury rating after approximately 10 d, read-out: Kochia plant response rating (0 to 100 scale, 0 is no effect, 100 is complete control)) of the same compound?
**A.** 0%

**Q.** And the pest or weed control at 500 g/ha ([6]; 500 g ai/ha, preemergence, visual injury rating about 10 d after treatment, 0 to 100 scale (0 no effect, 100 complete control), read-out: Kochia plant response rating)?
**A.** 60%

**Q.** What about the pest or weed control at 125 g/ha [7, 21] of the same compound?
**A.** 30%

**Q.** What about the pest or weed control at 500 g/ha [7, 22] of the same compound?
**A.** 60%

**Q.** And the pest or weed control at 125 g/ha [8, 21]?
**A.** 90%

**Q.** What about the pest or weed control at 500 g/ha [8, 22] of the same compound?
**A.** 90%

**Q.** And the pest or weed control at 125 g/ha [9, 21]?
**A.** 0%

**Q.** And the pest or weed control at 500 g/ha [9, 22]?
**A.** 30%

**Q.** What about the plant injury at 125 g/ha [10, 21] of the same compound?
**A.** 30%

**Q.** What about the plant injury at 500 g/ha [10, 22] of the same compound?
**A.** 50%

**Q.** What about the pest or weed control at 125 g/ha [11, 21] of the same compound?
**A.** 30%

**Q.** What about the pest or weed control at 500 g/ha [11, 22] of the same compound?
**A.** 60%

**Q.** And the pest or weed control at 125 g/ha [12, 21]?
**A.** 90%

**Q.** What about the pest or weed control at 500 g/ha [12, 22] of the same compound?
**A.** 90%

**Q.** What about the pest or weed control at 125 g/ha [13, 21] of the same compound?
**A.** 30%

**Q.** And the pest or weed control at 500 g/ha [13, 22]?
**A.** 60%

**Q.** What about the pest or weed control at 125 g/ha [14, 21] of the same compound?
**A.** 0%

**Q.** And the pest or weed control at 500 g/ha [14, 22]?
**A.** 50%

**Q.** And the pest or weed control at 125 g/ha [15, 21]?
**A.** 30%

**Q.** What about the pest or weed control at 500 g/ha [15, 22] of the same compound?
**A.** 50%

**Q.** And the Corn plant response rating (crop injury, 0 = no effect, 100 = complete kill) at 125 g/ha [16, 21]?
**A.** 70%

**Q.** What about the Corn plant response rating (crop injury, 0 = no effect, 100 = complete kill) at 500 g/ha [16, 22] of the same compound?
**A.** 90%

**Q.** What about the pest or weed control at 250 g/ha [17] of the same compound?
**A.** 65%

**Q.** What about the pest or weed control at 250 g/ha [18] of the same compound?
**A.** 90%

**Q.** What about the pest or weed control at 250 g/ha [19] of the same compound?
**A.** 0%

**Q.** And the pest or weed control at 250 g/ha [20]?
**A.** 0%
